Experimental data from patent US11186874B2, “ERK1 and ERK2 mutations that confer resistance to MAPK pathway inhibitors” (Dana-Farber Cancer Institute, Inc., priority 2014, dated 2021).

Assays:
A375 cells = test: MTS growth assay of A375 cells expressing DOX-inducible ERK1/2 alleles in the presence of MAPK pathway inhibitors; assay type: cell-based
Description: To verify their resistance effects, we engineered the relevant mutations for highly mutated alleles or for low frequency alleles that were analogous between ERK1 and ERK2 within the coding sequence of ERK1 or ERK2 by site directed mutagenesis in the doxycycline-inducible vector. […] Here, we defined validation as a >4-fold increase in cell growth conferred by DOX-induced mutant ERK expression compared to control cells cultured without DOX (FIG. 2A, Table 4, FIG. 8G).
A375, WM266.4, or SKmel19 cells were plated in 96-well plates, with six replicates for each drug. Drugs were added the next day with or without DOX. Cell growth was analyzed 72-96 hours later by MTS assay (Promega). The inhibitor concentrations were the same as the screen. […] Growth was normalized to DMSO, NO-DOX controls, and graphed as percent growth. Heatmaps were created from growth assays using GENE-E (Available on the World Wide Web at broadinstitute.org/cancer/software/GENE-E/download.html). For some growth assays, a half-log dose response curve was generated to determine sensitivity. The concentration of DMSO was 0.1%.

ERK2 [1] = test: IP kinase assay, V5-tagged ERK2, phosphorylation of recombinant ELK-1 peptide; assay type: biochemical, human; settings: for ERK kinase activity of ERK inhibitor resistance alleles in the presence of inhibitor: ERK2 resistance alleles, FIG. 3B, FIG. 10B
Procedure: (§1) Phosphorylation of ELK-1 (at serine 383) was measured by Western blotting.
(§2) ERK1 and ERK2 open constructs were transferred into DEST40 (C-terminal V5 tag) vector (Invitrogen) using LR clonase II. A375 cells were transiently transfected with V5-tagged ERK1 or ERK2 constructs using X-tremeGENE HP (Roche). […] Reactions were stopped with the addition on 3× SDS loading buffer. Samples were boiled and supernatant was run on SDS-PAGE gel for western blotting.

ERK1/2 = test: Western blotting of ERK signaling in A375 cells expressing ERK1/2 alleles; assay type: cell-based; settings: for ERK signaling (RSK phosphorylation, DUSP6, cyclin D1) in the presence of ERK inhibitor: ten ERK inhibitor resistance alleles, DOX, 24 h
Procedure: Cells were exposed to DOX with or without MAPK inhibitor at the same doses used in the screen for 24 h, then harvested in RIPA buffer, and run on SDS-PAGE. Proteins were transferred to PVDF membranes and analyzed using the following antibodies phosphoERK1/2, ERK1/2, phosphoELK-1 S383 (Santa Cruz), phosphoRSK (S380), RSK, tubulin, DUSP6 (Cell Signaling), cyclin D1 (Thermo Scientific), and V5 (Abcam). Relative expression was calculated by comparing densities of bands of phoshoELK-1 to total ERK (or V5). Values were normalized to untreated WT, which was set at 1.

ERK2 [2] = target: T1, ERK2 (Homo sapiens, UniProt P28482); test: IP kinase assay, V5-tagged ERK2, phosphorylation of recombinant ELK-1 peptide; assay type: biochemical; settings: wild type ERK2; VX-11e 0.1 μM added during the kinase assay
T1 construct: made in house; host or cells: A375 cells, transient transfection; captured on V5-agarose beads
Procedure: as §1, §2

ERK1 [3] = target: T2, ERK1 (Homo sapiens, UniProt P27361, Y148H); test: IP kinase assay, V5-tagged ERK1, phosphorylation of recombinant ELK-1 peptide; assay type: biochemical; settings: ERK1^Y148; trametinib 3 nM, 4 h
T2 construct: made in house; host or cells: A375 cells, transient transfection; captured on V5-agarose beads

ERK1 [4] = test: as above; assay type: biochemical, human; settings: ERK1 alleles; trametinib 3 nM, 4 h, added to cells prior to harvest

T2 sequence (P27361 2-379 Y148H): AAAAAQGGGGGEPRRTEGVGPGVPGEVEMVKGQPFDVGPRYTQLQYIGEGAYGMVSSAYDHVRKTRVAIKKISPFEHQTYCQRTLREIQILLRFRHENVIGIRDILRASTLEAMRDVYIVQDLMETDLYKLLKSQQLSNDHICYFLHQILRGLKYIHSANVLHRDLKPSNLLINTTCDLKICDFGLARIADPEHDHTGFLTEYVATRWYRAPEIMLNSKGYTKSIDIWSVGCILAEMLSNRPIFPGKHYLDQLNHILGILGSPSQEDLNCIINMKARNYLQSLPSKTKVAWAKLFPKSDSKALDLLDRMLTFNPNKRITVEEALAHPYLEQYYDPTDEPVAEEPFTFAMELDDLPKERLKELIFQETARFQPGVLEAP
T1 sequence (P28482 2-360): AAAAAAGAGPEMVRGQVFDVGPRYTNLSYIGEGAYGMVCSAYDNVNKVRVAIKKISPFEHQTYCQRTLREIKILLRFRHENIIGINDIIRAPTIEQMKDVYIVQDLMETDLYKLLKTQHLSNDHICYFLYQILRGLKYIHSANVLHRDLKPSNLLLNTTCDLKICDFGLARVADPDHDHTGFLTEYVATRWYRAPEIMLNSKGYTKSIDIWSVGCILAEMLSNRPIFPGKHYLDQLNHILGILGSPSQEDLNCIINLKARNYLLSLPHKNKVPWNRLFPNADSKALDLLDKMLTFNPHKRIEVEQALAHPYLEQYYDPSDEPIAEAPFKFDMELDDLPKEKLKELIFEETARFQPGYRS

| SMILES | growth advantage (A375 cells; ERK1^Y53H, 0.5 μM SCH772984) [fold] | increase in cell growth (A375 cells; ERK1^Y53H, 1 μM SCH772984) [fold] | increase in cell growth with allele expression (A375 cells; selected VX-11e-resistant ERK1 and ERK2 alleles, SCH772984) | ERK kinase activity of ERK inhibitor resistance alleles in the presence of inhibitor (ERK2 [1]) | phosphorylation of ERK2-resistant alleles (ERK1/2; A375, ERK inhibitor resistant ERK2 alleles) | ERK signaling (RSK phosphorylation, DUSP6, cyclin D1) in the presence of ERK inhibitor (ERK1/2; A375) | phosphorylation of wild type ERK1/2 (ERK1/2; A375, wild type ERK1/2) | increase in cell growth conferred by DOX-induced mutant ERK expression compared to control cells cultured without DOX (A375 cells; 16 validated of 20 candidate ERK1/2 resistance alleles, VX-11e 2 μM) [fold] | effect on growth in the presence of the ERK inhibitor (A375 cells; kinase-dead ERK1 and ERK2 and GFP, VX-11e 2 μM) | growth advantage in the presence of the ERK inhibitor (A375 cells; wild-type ERK1 and ERK2, VX-11e 2 μM) [fold] | ELK-1 phosphorylation (serine 383) induced by wild type ERK2 (ERK2 [2]) | ERK phosphorylation (ERK1/2; any context examined) | residual kinase activity of common docking domain mutants compared to other alleles (ERK1 [3]) | ERK kinase activity (ELK-1 peptide phosphorylation) of RAF/MEK inhibitor resistant alleles in the presence of MEK inhibitor (ERK1 [4]) | residual kinase activity of common docking domain mutants compared to other alleles (ERK2 [1]; ERK2^Y131, ERK2^D321G, ERK2^E322K, trametinib 3 nM, 4 h) | ERK kinase activity (ELK-1 peptide phosphorylation) of RAF/MEK inhibitor resistant alleles in the presence of MEK inhibitor (ERK2 [1]; ERK2 alleles, trametinib 3 nM, 4 h, added to cells prior to harvest) |
| --- | --- | --- | --- | --- | --- | --- | --- | --- | --- | --- | --- | --- | --- | --- | --- | --- |
| O=C(Nc1ccc2[nH]nc(-c3ccncc3)c2c1)[C@@H]1CCN(CC(=O)N2CCN(c3ccc(-c4ncccn4)cc3)CC2)C1 [SCH772984] | 5 | 2.5 | over 4 fold | maintained ERK kinase activity | no effect | maintained | decreased | – | – | – | – | – | – | – | – | – |
| Cc1cnc(Nc2ccc(F)cc2Cl)nc1-c1c[nH]c(C(=O)N[C@H](CO)c2cccc(Cl)c2)c1 [VX-11e] | – | – | – | maintained ERK kinase activity | – | sustained ERK signaling | – | > 4 | no effect | 1.5 | completely blocked | no effect | – | – | – | – |
| CC(=O)Nc1cccc(-n2c(=O)n(C3CC3)c(=O)c3c(Nc4ccc(I)cc4F)n(C)c(=O)c(C)c32)c1 [trametinib] | – | – | – | – | – | – | – | – | – | – | – | – | diminished residual kinase activity | maintained ERK kinase activity | diminished residual kinase activity | maintained ERK kinase activity |
